Consider seven test systems from the supplement of paper PMC10331698.

What all share (test): level (log10 ratio to DMSO vehicle control); higher = higher biomarker level / cell amount than vehicle control
Conditions in all cases: in DMSO

Compound in one assay: NC(=O)C(F)(F)C(F)(F)C(F)(F)F [Heptafluorobutyramide]
The procedure:
(§1)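 BioMAP Diversity Plus panel of 12 human primary cell co-culture systems (3C, 4H, LPS, SAg, BT, BF4T, BE3C, CASM3C, HDF3CGF, KF3CT, MyoF, Mphg). Compounds were added 1 h before stimulation and left for 24 h (MyoF 48 h; BT 72 h for soluble read-outs or 6 d for IgG). Biomarkers were read by ELISA, cytotoxicity by SRB, PBMC viability and proliferation by Alamar Blue. Each well value was divided by the mean of 8 DMSO control wells on the same plate and log10 transformed; duplicate blinded samples were tested at 4 concentrations.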

Compound in another assay: NC(=O)C(F)(F)C(F)(F)F [Pentafluoropropionamide]
The protocol:
as §1

Compound in assay [1]: C=CC(=O)OCC(F)(F)C(F)(F)C(F)(F)C(F)(F)C(F)(F)C(F)(F)C(F)(F)F [1H,1H-Perfluorooctyl acrylate]
The procedure:
as §1

Compound in assay [2]: COC(=O)CCC(F)(F)C(F)(F)C(F)(F)C(F)(F)F [Methyl 2H,2H,3H,3H-perfluoroheptanoate]
The protocol:
as §1

Compound in assay [3]: O=C(O)C(F)(F)C(F)(F)C(F)(F)OC(F)(C(F)(F)F)C(F)(F)F [Perfluoro-4-isopropoxybutanoic acid]
The protocol: as §1

Compound in assay [4]: FC(F)(F)C(F)(C(F)(F)F)C(F)(F)C(F)(F)CC1CO1 [3-(Perfluoro-3-methylbutyl)-1,2-propenoxide]
The protocol: as §1

Compound in assay [5]: OCCC(F)(F)C(F)(F)C(F)(F)C(F)(F)C(F)(F)C(F)(F)F [6:2 Fluorotelomer alcohol]
The protocol:
as §1

± gives the standard deviation of the averaged measurements.

As to CASM3C:HLA-DR, the “level (log10)” value is 0.003 ± 0.024 in the assay with Heptafluorobutyramide (6700 nM); -0.0025 ± 0.0021 with Heptafluorobutyramide (20000 nM); -0.012 ± 0.038 in the assay with Heptafluorobutyramide (60000 nM); -0.005 ± 0.0042 in the assay with Pentafluoropropionamide (6700 nM); 0.0045 ± 0.0092 with Pentafluoropropionamide (20000 nM); -0.001 ± 0.018 with Pentafluoropropionamide (60000 nM). The “level (log10)” value in assay [1] (6700 nM) is 0.0075 ± 0.00071; in assay [1] (20000 nM), 0.002 ± 0.018; in assay [1] (60000 nM), 0.0045 ± 0.013; in assay [2] (6700 nM) it was -0.0185 ± 0.005; in assay [2] (20000 nM) it was -0.014 ± 0.018; in assay [2] (60000 nM), -0.011 ± 0.028. In addition, the “level (log10)” value in assay [3] (6700 nM) is -0.0205 ± 0.029; in assay [3] (20000 nM), -0.0315 ± 0.023; in assay [3] (60000 nM), -0.013 ± 0.04; in assay [4] (6700 nM) it was -0.0105 ± 0.026; in assay [4] (20000 nM), -0.0185 ± 0.0092; in assay [5] (6700 nM), 0 ± 0.025. The “level (log10)” value in assay [5] (20000 nM) is -0.025 ± 0.023.

As for CASM3C:IL-6, the “level (log10)” value is -0.0275 ± 0.033 with Heptafluorobutyramide (6700 nM); -0.0105 ± 0.012 with Heptafluorobutyramide (20000 nM); 0.013 ± 0.042 with Heptafluorobutyramide (60000 nM); -0.021 ± 0.017 in the assay with Pentafluoropropionamide (6700 nM); -0.025 ± 0.0028 with Pentafluoropropionamide (20000 nM); -0.003 ± 0.041 with Pentafluoropropionamide (60000 nM). The “level (log10)” value in assay [1] (6700 nM) is -0.0135 ± 0.029; in assay [1] (20000 nM), -0.027 ± 0.048; in assay [1] (60000 nM) it was -0.0125 ± 0.03; in assay [2] (6700 nM), -0.019 ± 0.021; in assay [2] (20000 nM) it was -0.025 ± 0.0028; in assay [2] (60000 nM) it was 0.0005 ± 0.028. The “level (log10)” value in assay [3] (6700 nM) was -0.0055 ± 0.019; in assay [3] (20000 nM), -0.002 ± 0.025; in assay [3] (60000 nM) it was 0.0285 ± 0.084; in assay [4] (6700 nM), -0.02 ± 0.0057; in assay [4] (20000 nM), 0.007 ± 0.027; in assay [5] (6700 nM) it was 0.0015 ± 0.018. For the same test system, in assay [5] (20000 nM), the “level (log10)” value was -0.004 ± 0.0099.

As for CASM3C:LDLR, the “level (log10)” value in the assay with Heptafluorobutyramide (6700 nM) was -0.017 ± 0.0014; in the assay with Heptafluorobutyramide (20000 nM), -0.0145 ± 0.0064; with Heptafluorobutyramide (60000 nM), 0.024 ± 0.047; with Pentafluoropropionamide (6700 nM), 0.003 ± 0.042; with Pentafluoropropionamide (20000 nM) it was 0.0045 ± 0.011; in the assay with Pentafluoropropionamide (60000 nM) it was 0.0295 ± 0.015. Also, the “level (log10)” value in assay [1] (6700 nM) amounted to 0.011; in assay [1] (20000 nM), 0.006 ± 0.0099; in assay [1] (60000 nM) it was 0.016 ± 0.016; in assay [2] (6700 nM), 0.016 ± 0.0099; in assay [2] (20000 nM), 0.0095 ± 0.005; in assay [2] (60000 nM), 0.033 ± 0.028. The “level (log10)” value in assay [3] (6700 nM) is 0.012 ± 0.0014; in assay [3] (20000 nM), 0.017 ± 0.011; in assay [3] (60000 nM), 0 ± 0.0014; in assay [4] (6700 nM) it was -0.012 ± 0.017; in assay [4] (20000 nM), -0.002 ± 0.011; in assay [5] (6700 nM) it was 0.031 ± 0.011. Also, the “level (log10)” value in assay [5] (20000 nM) was 0.023 ± 0.0028.

As for CASM3C:M-CSF, the “level (log10)” value with Heptafluorobutyramide (6700 nM) was -0.0495 ± 0.0035; with Heptafluorobutyramide (20000 nM), -0.0375 ± 0.018; with Heptafluorobutyramide (60000 nM), 0.022 ± 0.073; with Pentafluoropropionamide (6700 nM) it was -0.021 ± 0.038; in the assay with Pentafluoropropionamide (20000 nM) it was -0.0125 ± 0.00071; with Pentafluoropropionamide (60000 nM), 0.0205 ± 0.035. Also, the “level (log10)” value is -0.0205 ± 0.032 in assay [1] (6700 nM); 0.0135 ± 0.00071 in assay [1] (20000 nM); -0.0075 ± 0.0021 in assay [1] (60000 nM); -0.0155 ± 0.016 in assay [2] (6700 nM); -0.031 ± 0.021 in assay [2] (20000 nM); 0.013 ± 0.054 in assay [2] (60000 nM). The “level (log10)” value in assay [3] (6700 nM) is 0.0165 ± 0.032; in assay [3] (20000 nM), 0.0075 ± 0.039; in assay [3] (60000 nM) it was 0.0155 ± 0.043; in assay [4] (6700 nM), -0.0175 ± 0.0021; in assay [4] (20000 nM) it was 0.008 ± 0.042; in assay [5] (6700 nM) it was -0.018 ± 0.0014. The “level (log10)” value in assay [5] (20000 nM) turned out to be 0.019 ± 0.016.

In the case of CASM3C:PAI-I, the “level (log10)” value with Heptafluorobutyramide (6700 nM) is -0.0045 ± 0.0021; with Heptafluorobutyramide (20000 nM), -0.0045 ± 0.012; with Heptafluorobutyramide (60000 nM), 0.0105 ± 0.0035; with Pentafluoropropionamide (6700 nM), -0.009 ± 0.0099; in the assay with Pentafluoropropionamide (20000 nM), -0.007 ± 0.014; in the assay with Pentafluoropropionamide (60000 nM), 0.0005 ± 0.0064. Besides, the “level (log10)” value in assay [1] (6700 nM) is 0 ± 0.0014; in assay [1] (20000 nM) it was -0.0075 ± 0.011; in assay [1] (60000 nM) it was 0.004 ± 0.0057; in assay [2] (6700 nM), -0.0195 ± 0.0078; in assay [2] (20000 nM), -0.006 ± 0.0099; in assay [2] (60000 nM), -0.0095 ± 0.016. The “level (log10)” value in assay [3] (6700 nM) was 0.007 ± 0.016; in assay [3] (20000 nM) it was 0.01 ± 0.021; in assay [3] (60000 nM), 0.0075 ± 0.026; in assay [4] (6700 nM) it was -0.0025 ± 0.0021; in assay [4] (20000 nM) it was 0.0045 ± 0.011; in assay [5] (6700 nM), 0.0105 ± 0.00071. In addition, the “level (log10)” value in assay [5] (20000 nM) is 0.005 ± 0.0057.

For the test system CASM3C:Proliferation, the “level (log10)” value was -0.0675 ± 0.098 with Heptafluorobutyramide (6700 nM); 0.0315 ± 0.018 in the assay with Heptafluorobutyramide (20000 nM); -0.0275 ± 0.087 with Heptafluorobutyramide (60000 nM); -0.0115 ± 0.015 in the assay with Pentafluoropropionamide (6700 nM); -0.0025 ± 0.011 with Pentafluoropropionamide (20000 nM); 0.0235 ± 0.069 in the assay with Pentafluoropropionamide (60000 nM). Further, the “level (log10)” value in assay [1] (6700 nM) is -0.0105 ± 0.029; in assay [1] (20000 nM), 0.0435 ± 0.013; in assay [1] (60000 nM) it was -0.028 ± 0.027; in assay [2] (6700 nM) it was -0.001 ± 0.0028; in assay [2] (20000 nM), -0.038 ± 0.0042; in assay [2] (60000 nM), 0.0025 ± 0.0035. The “level (log10)” value in assay [3] (6700 nM) was -0.018 ± 0.0099; in assay [3] (20000 nM) it was -0.037 ± 0.025; in assay [3] (60000 nM) it was -0.0085 ± 0.057; in assay [4] (6700 nM), -0.001 ± 0.047; in assay [4] (20000 nM), 0.0195 ± 0.071; in assay [5] (6700 nM), -0.004 ± 0.021. In assay [5] (20000 nM), the “level (log10)” value is -0.0205 ± 0.023.

As to CASM3C:SRB, the “level (log10)” value is -0.0135 ± 0.0078 with Heptafluorobutyramide (6700 nM); 0 ± 0.018 in the assay with Heptafluorobutyramide (20000 nM); -0.0065 ± 0.0078 with Heptafluorobutyramide (60000 nM); -0.002 ± 0.0057 with Pentafluoropropionamide (6700 nM); 0 ± 0.0085 with Pentafluoropropionamide (20000 nM); -0.0045 ± 0.00071 with Pentafluoropropionamide (60000 nM). Also, the “level (log10)” value in assay [1] (6700 nM) was -0.007 ± 0.011; in assay [1] (20000 nM) it was 0.0005 ± 0.0078; in assay [1] (60000 nM) it was 0.0005 ± 0.00071; in assay [2] (6700 nM) it was 0.003 ± 0.0042; in assay [2] (20000 nM), -0.003 ± 0.013; in assay [2] (60000 nM), -0.0015 ± 0.0035. The “level (log10)” value is 0.0015 ± 0.005 in assay [3] (6700 nM); -0.007 ± 0.0071 in assay [3] (20000 nM); 0.0015 ± 0.012 in assay [3] (60000 nM); 0.004 ± 0.0042 in assay [4] (6700 nM); -0.001 ± 0.014 in assay [4] (20000 nM); 0.0075 ± 0.005 in assay [5] (6700 nM). In assay [5] (20000 nM), the “level (log10)” value was -0.003 ± 0.0028.
